# Data published in patent publication US20240025966A1, “CD47 BLOCKADE AND COMBINATION THERAPIES THEREOF FOR REDUCTION OF VASCULAR INFLAMMATION” (The Board of Trustees of the Leland Stanford Junior …, priority 2020, published 2024).
# Tests used:
# CD47 promoter = CD47 promoter luciferase reporter assay; type: cell-based, mouse; settings: smooth muscle cells, 50 ng/ml TNF-α + 10 μM atorvastatin, 24 hours
# Procedure: The luciferase reporter assay was performed as previously described (Kojima et al., Nature 536, 86-90, 2016). CD47 LightSwitch Promoter Reporter GoClones (RenSP, S710450) and Cypridina TK Control constructs (pTK-Cluc, SN0322S) were obtained from SwitchGear Genomics. 45 ng of the RenSP reporter and 5 ng of the pTK-Cluc reporter construct were transfected into mouse smooth muscle cells using Lipofectamine 3000 Transfection 1 Reagent (Thermo Scientific, Catalogue #L3000-008) and Opti-MEM I Reduced Serum Medium (Thermo Scientific, Catalogue #31985062). […] The cell lysate and supernatant were harvested 24 hours after stimulation/treatment und dual luciferase activity was measured with the LightSwitch Luciferase Assay Kit (Active Motif, Catalogue #32031, NC0999256) and Pierce Cypridina Luciferase Glow Assay Kit (Thermo Scientific, P116170) using an iD3 luminometer (Molecular Devices). Relative luciferase activity (RenSP/Cypridina ratio) was quantified as the percentage change relative to the basal value obtained from control-transfected cells.
# CD47 = test: Cd47 expression by quantitative PCR, flow cytometry and immunofluorescence; type: cell-based, mouse; settings: smooth muscle cells, 50 ng/ml TNF-α + 10 μM atorvastatin, 48 hours; compared to macrophages
# Procedure: RNA was extracted from cell lysates using the miRNeasy Mini Kit (Qiagen, Catalogue #217004) according to the manufacturer's protocol or the TRIzol method (Invitrogen, Catalogue #15596026). Then, RNA was quantified with a NanoDrop One (Thermo Scientific). RNA was reverse transcribed using the High-Capacity RNA-to-cDNA Synthesis Kit (Applied 1 Biosystems, Catalogue #4387406). Quantitative PCR of the cDNA samples was performed on a ViiA7 Real-Time PCR system or a QuantStudio 5 (both Applied Biosystems). Gene expression levels were measured using TaqMan Universal Master Mix II (Applied Biosystems, Catalogue #4440047, Lot #00762728) and commercially available TaqMan primers (Applied Biosystems). Data were quantified with the 2^−ΔΔCt method and normalized to Gapdh as an internal control. […]
# Cells were washed, harvested, and stained with an anti-CD47 antibody (BD Life Sciences, Catalogue #561890, FITC, MIAP301, 0.5 mg/ml) or an isotype control antibody (BD Life Sciences, Catalogue #553929, FITC, R35-95, 0.5 mg/ml) after Fc receptor blockade (BD Biosciences, Catalogue #553142, anti-mouse CD16/CD32). Expression was quantified using the LSRII (BD Life Sciences, Stanford Shared FACS Facility) and analysed by FlowJo10.7.1 (BD Life Sciences). […]
# RAW 264.7 macrophages = test: Apoptosis assay (Caspase-Glo 3/7); type: cell-based, mouse; settings: with or without 1 μM staurosporine, 4 hours
# Procedure: The apoptosis assay was performed as previously described (Kojima et al., Nature 536, 86-90, 2016). To evaluate apoptosis, the luminometric Caspase-Glo 3/7 Assay System (Promega, Catalogue #G8091) was performed on cultured murine RAW 264.7 macrophages, according to the manufacturer's protocol. Cells were seeded in 96-well plates at the density of 10,000 cells per well, grown at 37° C. and serum-starved for 24 hours. […] For quantification, an iD3 luminometer (Molecular Devices) was used.
# humans = test: Retrospective analysis of 18F-FDG-PET/CT scans of patients treated with magrolimab; type: in vivo, human; settings: mean±SD, n=9
# Procedure: Study population and design. The 13 participants enrolled in the first-in-human clinical trials of magrolimab at Stanford University were identified for inclusion in this retrospective analysis. These patients had refractory or relapsed B-cell lymphoma and had become refractory to rituximab alone or in combination with chemotherapy prior to enrollment. The protocol was reviewed and approved by the institutional review board at Stanford University (IRB #55497). Participants were treated with magrolimab in combination with background rituximab therapy. […]
# ^18F-FDG-PET/CT scans and analysis. […] Images were anonymized and analyzed using MIM Vista version 6.9.2 (MIM Software Inc., Cleveland, OH). The analyses were performed as previously described, and vascular uptake was quantified in the carotid arteries to avoid confounding by signal present in the mediastinal lymph nodes. Briefly, the carotid artery bifurcations on both sides were identified and arterial FDG uptake was measured starting 2 cm below the carotid artery bifurcation and continuing superiorly to 2 cm into the internal carotid artery. […] The maximum target-to-background ratio (TBR) was calculated (ratio of the maximum SUV of the artery compared to background activity in the ipsilateral internal jugular vein). […] This was calculated as an average maximum TBR derived from four contiguous axial segments. […]
# NFκB1 p50 = NFκB1 p50 nuclear translocation by immunofluorescence and Western blot; type: cell-based, mouse; settings: smooth muscle cells, 10 μM atorvastatin + 100 μM mevalonate
# Procedure: Mouse smooth muscle cells were seeded in Millicell EZ Slides 1 (Sigma-Aldrich, Catalogue #PEZGS0416 or Catalogue #PEZGS0816). […] Following stimulation/treatment, cells were rinsed with PBS and fixed with 4% phosphate-buffered paraformaldehyde. For CD47 staining (BioXCell, MIAP410, 25 μg/ml), vector mouse-on-mouse fluorescein Immunodetection Kit (Thermo Scientific, Catalogue #NC9801950) was used according to the manufacturer's instructions. For NFκB1 p105/p50 staining, cells were blocked with 5% goat serum (Sigma-Aldrich, Catalogue #G9023) for 30 minutes, then incubated with NFκB1 p105/p50 (Cell Signaling Technology, Catalogue #13586S, D4P4D, 1:200) overnight at 4° C. […] Images were captured using a Leica DMi8 microscope (equipped with a Leica DMC4500 colour camera and a Leica K5 camera for fluorescence imaging).
# Total protein was isolated from mouse smooth muscle cells using a subcellular protein fractionation kit (Thermo Scientific, Catalogue #78840) supplemented with Halt Protease and Phosphatase Inhibitor Cocktail (Thermo Scientific, Catalogue #78442). The protein concentration in each sample was measured using Pierce BCA Protein Assay Kit (Thermo Scientific, Catalogue #23225). […] Membranes were then scanned with an iBright 1500 Imaging System (Thermo Scientific) for quantitative analysis using Image J/FIJI software (Version: 2.0.0/1.52p, NIH).
compound,measurement,setting,value
CC(C)c1c(C(=O)Nc2ccccc2)c(-c2ccccc2)c(-c2ccc(F)cc2)n1CC[C@@H](O)C[C@@H](O)CC(=O)O [atorvastatin],tumor necrosis factor-α induced CD47 promoter activity,CD47 promoter,inhibit
same,CD47 RNA level,CD47,larger reduction
same,CD47 protein level,CD47,larger reduction
same,rate of programmed cell death (apoptosis),RAW 264.7 macrophages,not found
"magrolimab: humanized anti-CD47 antibody, the first macrophage checkpoint inhibitor",18F-FDG uptake measured by maximum SUV,"humans; most diseased segment of the index vessel (carotid) after magrolimab 20 to 45 mg/kg weekly with background rituximab, baseline 2.75±0.58, p=0.01",2.09±0.53
same,18F-FDG uptake measured by maximum TBR,"humans; most diseased segment of the index vessel (carotid) after magrolimab with background rituximab, baseline 1.56±0.22, p=0.006",1.28±0.11
CC(O)(CCOP(=O)(O)O)CC(=O)O (racemic) [DL-mevalonic acid 5-phosphate],effect of atorvastatin on NFκB1 p50 nuclear translocation with the addition of mevalonate,NFκB1 p50,eliminated
